Source: paper PMC10381909, “Secondary Metabolites from the Cultures of Medicinal Mushroom Vanderbylia robiniophila and Their Tyrosinase Inhibitory Activities” (Journal of Fungi, 2023)

Columns and labels:
HeLa cells = tested on: HeLa cells; design: method as in PMID 21747753, PMID 21673896, PMID 31671793; conditions: obtained from marine-derived fungi; cited from earlier work
tyrosinase = tyrosinase (Agaricus bisporus, UniProt C7FF04); experiment: Enzyme kinetic analysis (V-S curve, Lineweaver–Burk plot, secondary replot); format: biochemical
Chain of tyrosinase (C7FF04 1-392): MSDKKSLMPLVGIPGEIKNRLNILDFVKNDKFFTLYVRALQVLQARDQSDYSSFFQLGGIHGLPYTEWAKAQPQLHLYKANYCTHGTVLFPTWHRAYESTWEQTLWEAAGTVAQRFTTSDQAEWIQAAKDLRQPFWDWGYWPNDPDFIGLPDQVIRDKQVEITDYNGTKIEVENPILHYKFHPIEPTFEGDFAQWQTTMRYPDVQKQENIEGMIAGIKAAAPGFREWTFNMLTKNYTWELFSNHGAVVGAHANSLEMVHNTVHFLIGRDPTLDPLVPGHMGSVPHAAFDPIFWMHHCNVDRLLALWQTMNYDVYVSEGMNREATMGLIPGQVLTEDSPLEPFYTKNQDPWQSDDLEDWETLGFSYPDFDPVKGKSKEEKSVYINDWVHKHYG
Experimental: The inhibition type was measured by the reaction rate–substrate concentration curve and the Lineweaver–Burk plot. L-tyrosine solutions were diluted to different concentrations (5 mM, 7.5 mM, 9 mM, 12 mM, 15 mM) as the substate. The inhibition constant was determined by the second plot of the y-intercept versus the concentration of the inhibitor. The values of Kis were calculated from the following formula: y-intercept=1/Vm1+[I]/Kis
The inhibition constant Kis was obtained from the plot of the y-intercept versus the concentration of 10, which was calculated to be 0.04 mM (Figure 5C).

Aβ1–42 = tested on: Aβ1–42; design: method as in PMID 31520649; conditions: pair of enantiomeric compounds from corn silk; cited from earlier work

| inhibition type on tyrosinase (tyrosinase; L-tyrosine 5–15 mM, Lineweaver–Burk plot) | change of Km and Vm with increasing inhibitor concentration (tyrosinase; ratio Km/Vm remained unchanged) | Compound | cytotoxic activity against HeLa cells (HeLa cells) | anti-Aβ1–42 aggregation activity (Aβ1–42) |
| --- | --- | --- | --- | --- |
| uncompetitive inhibitor | decreased | COC(=O)C(=O)c1c[nH]c2ccccc12 [Compound 10, (1H-indol-3-yl) oxoacetic acid methyl ester] | weak |  |
|  |  | COC(=O)CCCCCCC[C@H]1C=CC(=O)O1 [Compound 9, Cornilkone C] |  | weak |
